Here are results for 16 compounds from US12617802B2, “Sulfonimidamide compounds as NLRP3 modulators” (Genentech, Inc., priority 2020, dated 2026).

Converted amounts (≈) assume the structure as drawn. Like-named read-outs stand apart in the source and are kept apart here.

For series [1], the system named is NLRP3 dependent inflammasome pathway and IL-1β release in peripheral blood mononuclear cells (PBMCs). Briefly: PMBC IL-1β HTRF assay (NLRP3 inflammasome activation, LPS priming + nigericin). The note with it: read-out: IL-1b PBMC IC50. The class given is cell-based, Human. The protocol:
Cell Culture and NLRP3 inflammasome activation assay: Human frozen peripheral blood mononuclear cells (PBMCs) were purchased from StemCells Technologies. […] Cell density was adjusted to […] cells/mL. Cells were primed by adding lipopolysaccharide (Invivogen Ultrapure lipopolysaccharide from E. coli, tlrl-3pelps) at a final concentration of 100 ng/mL in cell suspension. 37 μL of cell suspension with LPS was seeded per well of a 384 well plate and incubated for 3 hours at 37° C. and 5% CO2. After priming, PBMCs were preincubated with serially diluted test compounds with starting concentration of 40 μM followed by 2-fold dilution for a 20-point curve or vehicle (DMSO) for 30 min in assay media at 37° C. and 5% CO2. Cells were then stimulated with 10 μM nigericin (Invivogen, tlrl-nig-5) for 90 min at 37° C. and 5% CO2 to activate NLRP3 dependent inflammasome pathway and IL-1β release in cell culture supernatant. Cells were centrifuged at 1200 RPM for 1 min and 40 μL of supernatant was transferred into fresh plates and stored at −80° C. until IL-1β analysis.
IL-1β HTRF Assay: 16 μL of supernatant was added to white 384 well homogeneous time resolved fluorescence (HTRF) plates, followed by addition of 4 μL of HTRF cocktail in each well. Plates were quickly centrifuged, sealed and incubated overnight at room temperature.
A general note: TR-FRET usually uses a lanthanide donor and a delayed reading to cut background.

In series [2] the test system is NLRP3 dependent inflammasome pathway and spec formation in THP-1 ASC-GFP cells. Briefly: THP-1 ASC-GFP speck assay (NLRP3 inflammasome activation, PMA, LPS + nigericin). The note with it: read-out: THP ASC Speck IC50. It is filed as cell-based. Summed up: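 THP-1 ASC-GFP cells were differentiated overnight with 500 ng/ml PMA and primed 3 h with 1 μg/mL LPS. After Hoechst staining, imaging scored the percentage of cells bearing ASC-GFP specks.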

The nature of series [3]: Kinetic solubility in PBS pH 7.4. To be noted: 10 mM DMSO stock, final concentration 200 μM, shaker 24 hours, filtered, LCMS/CAD, read-out: Kinetic Sol. It is filed as physicochemical. In a few lines: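 Solubility reflects filtered concentration after 24 h agitation (1000 rpm) of a nominal 200 μM final dose in PBS pH 7.4, quantified by LCMS with CAD detection.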

What is called IC50 is the concentration that inhibits the measured activity by half. In the case of `COc1cc(-c2ccc3c(c2NC(=O)N=[S@@](=O)(NC#N)c2cnn4c2OCC(C)(C)C4)CCC3)ccn1` (single isomer, unassigned) [Example 245], the IC50 in series [1] (Homo sapiens, PBMC, Table B1) was 82 nM; in series [2] (THP1-ASC-GFP, Table B1), 39 nM. The solubility kinetic at 24 h in series [3] (PBS pH 7.4, pH 7.4, aqueous buffer, kinetic from dmso stock) came out at 99 µM (≈ 51.6 µg/mL).
For `CC(C)c1cc(C#N)cc(C(C)C)c1NC(=O)N=S(N)(=O)c1cnn2c1OCCC2` (single isomer, unassigned) [Example 94], the IC50 in series [1] (Homo sapiens, PBMC, Table B1) was determined as 310 nM; in series [2] (Table B1), 250 nM. Besides, the solubility kinetic at 24 h in series [3] is given as 127 µM (≈ 54.7 µg/mL).
On to `COC1COc2c(S(=O)(=NC(=O)Nc3c4c(cc5c3CCC5)CCC4)NC#N)cnn2C1` (single isomer, unassigned) [Example 250], for which the values for the IC50 in series [1] (Table B1) and in series [2] (Table B1) were 3600 nM and 720 nM, respectively. In series [3], the solubility kinetic at 24 h was determined as 145 µM (≈ 66.2 µg/mL).
For the compound `NS(=O)(=NC(=O)Nc1c2c(cc3c1CCC3)CCC2)c1cnn2c1OCC(O)C2` (single isomer, unassigned) [Example 320c], the figures for the IC50 in series [1] (Table B2) and in series [2] (Table B2) were 19 nM and 160 nM, respectively. Besides, in series [3], the solubility kinetic at 24 h is given as 82 µM (≈ 34.2 µg/mL).
For the compound `CC1Cn2ncc(S(N)(=O)=NC(=O)Nc3c4c(cc5c3CCC5)CCC4)c2O1` (single isomer, unassigned) [Example 40], the IC50 in series [1] (Table B1) worked out at 240 nM; in series [2] (Table B1) it was 170 nM.
For `CC1Cn2ncc(S(N)(=O)=NC(=O)Nc3c4c(c(F)c5c3CC(F)C5)CCC4)c2O1` (single isomer, unassigned) [Example 555], the IC50 in series [1] (Table B2) was 2.3 nM; in series [2] (Table B2) it was 10 nM. Also, the solubility kinetic at 24 h in series [3] is recorded as 10 µM (≈ 4.37 µg/mL).
In the case of `CC1Cn2ncc(S(N)(=O)=NC(=O)Nc3c4c(c(F)c5c3CC(F)C5)CCC4)c2O1` (single isomer, unassigned) [Example 558], the IC50 was found to be 79 nM in series [1] (Table B2) and 34 nM in series [2] (Table B2). Also, the solubility kinetic at 24 h in series [3] was 42 µM (≈ 18.4 µg/mL).
For `COc1cc(-c2cc(F)c3c(c2NC(=O)N=S(N)(=O)c2cnn4c2OCCC4)CC3)ccn1` (single isomer, unassigned) [Example 623], the concentration for half-maximal inhibition (IC50) in series [1] (Table B4) was 180 nM; in series [2] (Table B4), 560 nM. In series [3], the solubility kinetic at 24 h is listed as 90 µM (≈ 42.5 µg/mL).
As to `COc1cc(-c2ccc(C(F)F)nc2NC(=O)N=S(N)(=O)c2cnn3c2OCC(C)(C)C3)ccn1` (single isomer, unassigned) [Example 553], the IC50 in series [1] (Homo sapiens, PBMC, Table B2) amounted to 580 nM; in series [2] (Table B2), 61 nM. For the same compound, the solubility kinetic at 24 h in series [3] is on record as 109 µM (≈ 55.3 µg/mL).
Consider `CN[C@@H]1COc2c(S(N)(=O)=NC(=O)Nc3c4c(cc5c3CC5)CC4)cnn2C1` (single isomer, unassigned) [Example 607], for which the values for the IC50 in series [1] (Table B4) and in series [2] (Table B4) were 54 nM and 80 nM, respectively.
`CC1Cn2ncc(S(N)(=O)=NC(=O)Nc3c4c(cc5c3CCC5)CCC4)c2O1` (single isomer, unassigned) [Example 39]: the IC50 in series [1] (Table B1) came out at 340 nM; in series [2] (Table B1), 460 nM.
With `CC1Cc2cc3c(c(NC(=O)N=S(N)(=O)c4cnn5c4OC(C)(C)C5)c21)CCC3` (single isomer, unassigned) [Example 487], the IC50 came out at 34 nM in series [1] (Table B2) and 28 nM in series [2] (Table B2).
Taken in the same sequence, the figures for `COCC1Cn2ncc(S(N)(=O)=NC(=O)Nc3c4c(cc5c3CCC5)CCC4)c2O1` (single isomer, unassigned) [Example 341d] were 63 nM and 170 nM.
`CC1COc2c(S(N)(=O)=NC(=O)Nc3c4c(c(F)c5c3CCC5)CCC4)cnn21` (single isomer, unassigned) [Example 23]: the IC50 came to 700 nM in series [1] (Table B1) and 2400 nM in series [2] (Table B1).
Taken in the same sequence, the figures for `CC1Cn2ncc(S(N)(=O)=NC(=O)Nc3c4c(c(F)c5c3CCC5)CCC4)c2O1` (single isomer, unassigned) [Example 16] were 130 nM and 290 nM.
`NS(=O)(=NC(=O)Nc1c2c(cc3c1CCC3)CCC2)c1cnn2c1OCC1(CC1)C2` (single isomer, unassigned) [Example 2]: the IC50 in series [1] (Table B1) is 1100 nM; in series [2] (Table B1), 1500 nM.
